Measurements reported in patent publication US6489315B1, “Cyclic compounds, their production and use” (Takeda Chemical Industries, Ltd., priority 1995, dated 2002).

SMILES	melting point
CCN1CCN(Cc2cc(C(F)(F)F)cc(C(F)(F)F)c2)C(=O)c2c(ncc(C)c2-c2ccccc2)C1=O [Example 53, 6-[3,5-Bis(trifluoromethyl)benzyl]-9-ethyl-5,6,7,8,9,10-hexahydro-3-methyl-5,10-dioxo-4-phenylpyrido[2,3-f][1,4]diazocine]	228 to 229 °C
Cc1cnc2c(c1-c1ccccc1)C(=O)N(Cc1ccccc1)CCN(C)C2=O [Example 52, 6-Benzyl-5,6,7,8,9,10-hexahydro-3,9-dimethyl-5,10-dioxo-4-phenylpyrido[2,3-f][1,4]diazocine]	183 to 184 °C
CSCc1cc(-c2ccccc2)c2c(n1)OCCN(Cc1cc(C(F)(F)F)cc(C(F)(F)F)c1)C2=O [Example 42, 4-[3,5-Bis(trifluoromethyl)benzyl]-2,3,4,5-tetrahydro-8-methylthiomethyl-5-oxo-6-phenylpyrido[3,2-f][1,4]oxazepine]	165 to 166 °C
Cc1cc(-c2ccccc2)c2c(n1)OCCN(Cc1cc(C(F)(F)F)cc(C(F)(F)F)c1)C2=O [Example 33, 4-[3,5-Bis(trifluoromethyl)benzyl)-2,3,4,5-tetrahydro-8-methyl-5-oxo-6-phenylpyrido[3,2-f][1,4]oxazepine]	151 to 153 °C
COc1cc(CN2CCOc3nccc(-c4ccccc4)c3C2=O)cc(OC)c1OC [Example 64, 2,3,4,5-Tetrahydro-5-oxo-6-phenyl-4-(3,4,5-trimethoxybenzyl)pyrido[3,2-f][1,4]oxazepine]	177 to 179 °C
CNCc1cc(-c2ccccc2)c2c(n1)OCCN(Cc1cc(C(F)(F)F)cc(C(F)(F)F)c1)C2=O [Example 44, 4-[3,5-Bis(trifluoromethyl)benzyl]-2,3,4,5-tetrahydro-8-methylaminomethyl-5-oxo-6-phenylpyrido[3,2-f][1,4]oxazepine]	152 to 154 °C
Cc1cc(-c2ccccc2)c2c([n+]1[O-])OCCN(Cc1cc(C(F)(F)F)cc(C(F)(F)F)c1)C2=O [Example 35]	181 to 183 °C
CC(=O)OCc1cc(-c2ccccc2)c2c(n1)OCCN(Cc1cc(C(F)(F)F)cc(C(F)(F)F)c1)C2=O [Example 37, 8-Acetoxymethyl-4-[3,5-bis(trifluoromethyl)benzyl]-2,3,4,5-tetrahydro-5-oxo-6-phenylpyrido(3,2-f][1,4]oxazepine]	122 to 124 °C
CS(=O)(=O)NCc1cc(-c2ccccc2)c2c(n1)OCCN(Cc1cc(C(F)(F)F)cc(C(F)(F)F)c1)C2=O [Example 49, 4-[3,5-Bis(trifluoromethyl)benzyl]-2,3,4,5-tetrahydro-8-methanesulfonylaminomethyl-5-oxo-6-phenylpyrido[3,2-f][1,4]oxazepine]	194 to 195 °C
O=C1c2c(-c3ccccc3)cc(CNC3CC3)nc2OCCN1Cc1cc(C(F)(F)F)cc(C(F)(F)F)c1 [Example 46, 4-[3,5-Bis(trifluoromethyl)benzyl]-8-cyclopropylaminomethyl-2,3,4,5-tetrahydro-5-oxo-6-phenylpyrido[3,2-f][1,4]oxazepine]	129 to 131 °C
O=C1c2c(-c3ccccc3)ccnc2OCCCN1Cc1cc(C(F)(F)F)cc(C(F)(F)F)c1 [Example 22, 5-[3,5-Bis(trifluoromethyl)benzyl]-2,3,4,5-tetrahydro-6-oxo-7-phenyl-6H-pyrido(2,3-b)[1,5]oxazocine]	188 to 189 °C
C[C@@H]1COc2nccc(-c3ccccc3)c2C(=O)N(Cc2ccccc2)C1 [Example 69, (S)-5-Benzyl-2,3,4,5-tetrahydro-3-methyl-6-oxo-7-phenyl-6H-pyrido[2,3-b][1,5]oxazocine]	139 to 141 °C
COc1ccc(CN2CCOc3nccc(-c4ccccc4)c3C2=O)cc1OC [Example 66, 4-(3,4-Dimethoxybenzyl)-2,3,4,5-tetrahydro-5-oxo-6-phenylpyrido[3,2-f][1,4]oxazepine]	175 to 176 °C
O=C1c2c(-c3ccccc3)ccnc2OCCN1Cc1ccccc1 [Example 67, 4-Benzyl-2,3,4,5-tetrahydro-5-oxo-6-phenylpyrido[3,2-f][1,4]oxazepine]	209 to 211 °C
Cc1ccc(-c2ccnc3c2C(=O)N(Cc2ccccc2)C[C@H](C)CO3)cc1 [Example 81, (S)-5-Benzyl-2,3,4,5-tetrahydro-3-methyl-7-(4-methylphenyl)-6-oxo-6H-pyrido[2,3-b][1,5]oxazocine]	148 to 149 °C
Cc1cc(-c2ccccc2)c2c(n1)OCCCN(Cc1cc(C(F)(F)F)cc(C(F)(F)F)c1)C2=O [Example 34, 5-[3,5-Bis(trifluoromethyl)benzyl]-2,3,4,5-tetrahydro-9-methyl-6-oxo-7-phenyl-6H-pyrido[2,3-b][1,5]oxazocine]	164 to 165 °C
NCc1cc(-c2ccccc2)c2c(n1)OCCN(Cc1cc(C(F)(F)F)cc(C(F)(F)F)c1)C2=O [Example 43, 8-Aminomethyl-4-[3,5-bis(trifluoromethyl)benzyl]-2,3,4,5-tetrahydro-5-oxo-6-phenylpyrido[3,2-f][1,4]oxazepine]	188 to 191 °C

The next lines start with the values.

melting point	SMILES
227 to 228 °C	Cc1ccc(-c2c3n(c(=O)c4ncccc24)CC[C@H](C)CN(Cc2cc(C(F)(F)F)cc(C(F)(F)F)c2)C3=O)cc1 [Example 20, (9S)-7-[3,5-Bis(trifluoromethyl)benzyl]-6,7,8,9,10,11-hexahydro-9-methyl-5-(4-methylphenyl)-6,13-dioxo-13H-[1,4]diazocino[2,1-g][1,7]naphthyridine]
167 to 169 °C	CN1CCN(Cc2cc(C(F)(F)F)cc(C(F)(F)F)c2)C(=O)c2c(-c3ccccc3)ccnc2C1=O [Example 51, 6-[3,5-Bis(trifluoromethyl)benzyl]-5,6,7,8,9,10-hexahydro-9-methyl-5,10-dioxo-4-phenylpyrido[2,3-f][1,4]diazocine]
270 to 271 °C	Cc1ccc(-c2c3n(c(=O)c4ncccc24)CCN(Cc2cc(C(F)(F)F)cc(C(F)(F)F)c2)C3=O)cc1 [Example 1, 7-[3,5-Bis(trifluoromethyl)benzyl]-6,7,8,9-tetrahydro-5-(4-methylphenyl)-6,11-dioxo-11H-pyrazino[2,1-g][1,7]naphthyridine]
282 to 283 °C	Cc1ccc(-c2c3n(c(=O)c4ncccc24)CC(O)CN(Cc2cc(C(F)(F)F)cc(C(F)(F)F)c2)C3=O)cc1 (racemic) [Example 25, (+/−)-7-[3,5-Bis(trifluoromethyl)benzyl]-6,7,8,9,10,12-hexahydro-9-hydroxy-5-(4-methylphenyl)-6,12-dioxo[1,4]diazepino [2,1-g][1,7]naphthyridine]
147 to 149 °C	Cc1cnc2c(c1-c1ccccc1)C(=O)N(Cc1cc(C(F)(F)F)cc(C(F)(F)F)c1)C[C@@H](C)CO2 [Example 32, (R)-5-[3,5-Bis(trifluoromethyl)benzyl]-2,3,4,5-tetrahydro-3,8-dimethyl-6-oxo-7-phenyl-6H-pyrido[2,3-b][1,5]oxazocine]
142 to 143 °C	C[C@@H]1COc2nccc(-c3ccccc3)c2C(=O)N(Cc2cc(C(F)(F)F)cc(C(F)(F)F)c2)C1 [Example 71, (S)-5-[3,5-Bis(trifluoromethyl)benzyl]-2,3,4,5-tetrahydro-3-methyl-6-oxo-7-phenyl-6H-pyrido[2,3-b][1,5]oxazocine]
159 to 160 °C	Cc1ccc(-c2ccnc3c2C(=O)N(Cc2cc(C(F)(F)F)cc(C(F)(F)F)c2)C[C@H](C)CO3)cc1 [Example 82, (S)-5-[3,5-Bis(trifluoromethyl)benzyl]2,3,4,5-tetrahydro-3-methyl-7-(4-methylphenyl)-6-oxo-6H-pyrido[2,3-b][1,5]oxazocine]
200 to 201 °C	O=C1c2c(-c3ccccc3)ccnc2OCCN1Cc1cc(C(F)(F)F)cc(C(F)(F)F)c1 [Example 11, 4-[3,5-Bis(trifluoromethyl)benzyl]-2,3,4,5-tetrahydro-5-oxo-6-phenylpyrido[3,2-f][1,4]oxazepine]
203 to 205 °C	Cc1cnc2c(c1-c1ccccc1)C(=O)N(Cc1cc(C(F)(F)F)cc(C(F)(F)F)c1)CCN(C)C2=O [Example 50, 6-[3,5-Bis(trifluoromethyl)benzyl]-5,6,7,8,9,10-hexahydro-3,9-dimethyl-5,10-dioxo-4-phenylpyrido(2,3-f][1,4]diazocine]
242 to 244 °C	C[C@H]1CCn2c(c(-c3ccccc3)c3cccnc3c2=O)C(=O)N(Cc2cc(C(F)(F)F)cc(C(F)(F)F)c2)C1 [Example 19, (9S)-7-[3,5-Bis(trifluoromethyl)benzyl]-6,7,8,9,10,11-hexahydro-9-methyl-6,13-dioxo-5-phenyl-13H-[1,4]diazocino[2,1-g][1,7]naphthyridine]
194 to 195 °C	Cc1ccc(-c2c3n(c(=O)c4ncccc24)CCCN(Cc2cc(C(F)(F)F)cc(C(F)(F)F)c2)C3=O)cc1 [Example 2, 7-[3,5-Bis(trifluoromethyl)benzyl]-6,7,8,9,10,12-hexahydro-5-(4-methylphenyl)-6,12-dioxo[1,4]diazepino[2,1-g][1,7]naphthyridine]
257 to 258 °C	CC1CCn2c(c(-c3ccccc3)c3cccnc3c2=O)C(=O)N(Cc2cc(C(F)(F)F)cc(C(F)(F)F)c2)C1 (racemic) [Example 15, (+/−)-7-[3,5-Bis(trifluoromethyl)benzyl]-6,7,8,9,10,11-hexahydro-9-methyl-6,13-dioxo-5-phenyl-13H-[1,4]diazocino[2,1-g][1,7]naphthyridine]
179 to 180 °C	Cc1ccc(-c2c3n(c(=O)c4ncccc24)C[C@H](C)CN(Cc2cc(C(F)(F)F)cc(C(F)(F)F)c2)C3=O)cc1 [Example 12, (9R)-7-[3,5-Bis(trifluoromethyl)benzyl]-6,7,8,9,10,12-hexahydro-9-methyl-5-(4-methylphenyl)-6,12-dioxo[1,4]diazepino[2,1-g][1,7]naphthyridine]
280 to 281 °C	Cc1ccc(-c2c3n(c(=O)c4ncccc24)CCC(C)CN(Cc2cc(C(F)(F)F)cc(C(F)(F)F)c2)C3=O)cc1 (racemic) [Example 16, (+/−)-7-[3,5-Bis(trifluoromethyl)benzyl]-6,7,8,9,10,11-hexahydro-9-methyl-5-(4-methylphenyl)-6,13-dioxo-13H-[1,4]diazocino[2,1-g][1,7]naphthyridine]
